ChEMBL document CHEMBL2440076, “New triarylpyrazoles as broad-spectrum anticancer agents: design, synthesis, and biological evaluation” (Eur J Med Chem, 2013)

Experiments:
Format in all cases: functional
[1] = system: SF-268; experiment: Growth inhibition of human SF268 cells assessed as cell growth at 5X10'-9 M after 48 hrs by sulforhodamine B assay; conditions: SF-268, 48 h, read-out: Activity
[2] = system: HCT-15; experiment: Growth inhibition of human HCT15 cells assessed as cell growth at 5X10'-5 M after 48 hrs by sulforhodamine B assay; conditions: HCT-15, 48 h, read-out: Activity
[3] = system: MCF7; experiment: Growth inhibition of human MCF7 cells assessed as cell growth at 5X10'-6 M after 48 hrs by sulforhodamine B assay; conditions: MCF7, 48 h, read-out: Activity
[4] = system: CAKI-1; experiment: Growth inhibition of human CAKI-1 cells assessed as cell growth at 5X10'-6 M after 48 hrs by sulforhodamine B assay; conditions: CAKI-1, 48 h, read-out: Activity
[5] = system: MDA-MB-468; experiment: Growth inhibition of human MDA-MB-468 cells assessed as cell growth at 10 uM after 48 hrs by sulforhodamine B assay; conditions: MDA-MB-468, 48 h, read-out: Activity
[6] = system: OVCAR-5; experiment: Growth inhibition of human OVCAR5 cells assessed as cell growth at 10 uM after 48 hrs by sulforhodamine B assay; conditions: OVCAR-5, 48 h, read-out: Activity
[7] = system: SK-MEL-2; experiment: Growth inhibition of human SK-MEL-2 cells assessed as cell growth at 10 uM after 48 hrs by sulforhodamine B assay; conditions: SK-MEL-2, 48 h, read-out: Activity
[8] = system: SF-268; experiment: Growth inhibition of human SF268 cells assessed as cell growth at 10 uM after 48 hrs by sulforhodamine B assay; conditions: SF-268, 48 h, read-out: Activity
[9] = system: SF-295; experiment: Growth inhibition of human SF295 cells assessed as cell growth at 5X10'-6 M after 48 hrs by sulforhodamine B assay; conditions: SF-295, 48 h, read-out: Activity
[10] = system: T47D; experiment: Growth inhibition of human T47D cells assessed as cell growth at 5X10'-7 M after 48 hrs by sulforhodamine B assay; conditions: read-out: Activity
[11] = system: BT-549; experiment: Growth inhibition of human BT549 cells after 48 hrs by sulforhodamine B assay; conditions: BT-549, 48 h
[12] = system: TK-10; experiment: Growth inhibition of human TK10 cells after 48 hrs by sulforhodamine B assay; conditions: TK-10, 48 h
[13] = system: ACHN; experiment: Growth inhibition of human ACHN cells assessed as cell growth at 5X10'-7 M after 48 hrs by sulforhodamine B assay; conditions: read-out: Activity
[14] = system: LOX IMVI; experiment: Growth inhibition of human LOXIMVI cells assessed as cell growth at 5X10'-7 M after 48 hrs by sulforhodamine B assay; conditions: read-out: Activity
[15] = system: SNB-75; experiment: Growth inhibition of human SNB75 cells assessed as cell growth at 5X10'-7 M after 48 hrs by sulforhodamine B assay; conditions: SNB-75, 48 h, read-out: Activity
[16] = system: UACC-62; experiment: Growth inhibition of human UACC62 cells after 48 hrs by sulforhodamine B assay; conditions: UACC-62, 48 h
[17] = system: SK-MEL-2; experiment: Growth inhibition of human SK-MEL-2 cells after 48 hrs by sulforhodamine B assay; conditions: SK-MEL-2, 48 h
[18] = system: M14; experiment: Growth inhibition of human M14 cells after 48 hrs by sulforhodamine B assay; conditions: M14, 48 h
[19] = system: SNB-75; experiment: Growth inhibition of human SNB75 cells after 48 hrs by sulforhodamine B assay; conditions: SNB-75, 48 h
[20] = system: SNB-19; experiment: Growth inhibition of human SNB19 cells after 48 hrs by sulforhodamine B assay; conditions: SNB-19, 48 h
[21] = system: SF-539; experiment: Growth inhibition of human SF539 cells after 48 hrs by sulforhodamine B assay; conditions: SF-539, 48 h
[22] = system: COLO 205; experiment: Growth inhibition of human COLO205 cells assessed as cell growth at 5X10'-7 M after 48 hrs by sulforhodamine B assay; conditions: COLO 205, 48 h, read-out: Activity
[23] = system: HOP-92; experiment: Growth inhibition of human HOP92 cells assessed as cell growth at 5X10'-7 M after 48 hrs by sulforhodamine B assay; conditions: HOP-92, 48 h, read-out: Activity
[24] = system: RPMI-8226; experiment: Growth inhibition of human RPMI8226 cells assessed as cell growth at 5X10'-7 M after 48 hrs by sulforhodamine B assay; conditions: RPMI-8226, 48 h, read-out: Activity
[25] = system: K562; experiment: Growth inhibition of human K562 cells assessed as cell growth at 5X10'-7 M after 48 hrs by sulforhodamine B assay; conditions: K562, 48 h, read-out: Activity
[26] = system: T47D; experiment: Growth inhibition of human T47D cells assessed as cell growth at 5X10'-8 M after 48 hrs by sulforhodamine B assay; conditions: read-out: Activity
[27] = system: Malme-3M; experiment: Growth inhibition of human MALME-3M cells assessed as cell growth at 5X10'-8 M after 48 hrs by sulforhodamine B assay; conditions: read-out: Activity
[28] = system: T47D; experiment: Growth inhibition of human T47D cells assessed as cell growth at 5X10'-5 M after 48 hrs by sulforhodamine B assay; conditions: read-out: Activity
[29] = system: UO-31; experiment: Growth inhibition of human UO31 cells assessed as cell growth at 5X10'-5 M after 48 hrs by sulforhodamine B assay; conditions: UO-31, 48 h, read-out: Activity
[30] = Growth inhibition of human NCI-ADR-RES cells assessed as cell growth at 5X10'-5 M after 48 hrs by sulforhodamine B assay; conditions: read-out: Activity
[31] = system: HT-29; experiment: Growth inhibition of human HT-29 cells assessed as cell growth at 5X10'-8 M after 48 hrs by sulforhodamine B assay; conditions: HT-29, 48 h, read-out: Activity
[32] = system: HOP-62; experiment: Growth inhibition of human HOP62 cells assessed as cell growth at 5X10'-8 M after 48 hrs by sulforhodamine B assay; conditions: HOP-62, 48 h, read-out: Activity
[33] = system: MDA-MB-468; experiment: Growth inhibition of human MDA-MB-468 cells assessed as cell growth at 5X10'-9 M after 48 hrs by sulforhodamine B assay; conditions: MDA-MB-468, 48 h, read-out: Activity
[34] = system: PC-3; experiment: Growth inhibition of human PC3 cells assessed as cell growth at 5X10'-9 M after 48 hrs by sulforhodamine B assay; conditions: PC-3, 48 h, read-out: Activity
[35] = system: CAKI-1; experiment: Growth inhibition of human CAKI-1 cells assessed as cell growth at 5X10'-9 M after 48 hrs by sulforhodamine B assay; conditions: CAKI-1, 48 h, read-out: Activity
[36] = system: SK-MEL-28; experiment: Growth inhibition of human SK-MEL-28 cells assessed as cell growth at 5X10'-9 M after 48 hrs by sulforhodamine B assay; conditions: SK-MEL-28, 48 h, read-out: Activity

COc1cc(-c2nn(-c3cccc(NC(=O)Nc4cccc(C(F)(F)F)c4)c3)cc2-c2ccncc2)ccc1Cl
growth at 0.005 µM [1]: 97% | growth at 50 µM [2]: -29% | growth at 5 µM [3]: 2% | growth at 5 µM [4]: -14% | growth at 10 µM [5]: -27.6% | growth at 10 µM [6]: 28.2% | growth at 10 µM [7]: -71.2% | growth at 10 µM [8]: 2.35% | growth at 5 µM [9]: -71% | growth at 0.5 µM [10]: 85% | GI50 [11]: 1250 nM | LC50 (50% lethal concentration) [11]: 50000 nM | TGI [11]: 3810 nM | GI50 [12]: 1310 nM | TGI [12]: 19000 nM | CC50 ([12]; read-out: LC50 (the source's name)): > 50000 nM | growth at 0.5 µM [13]: 58% | growth at 0.5 µM [14]: 81% | growth at 0.5 µM [15]: 81% | GI50 [16]: 725 nM | LC50 (50% lethal concentration) [16]: 3480 nM | TGI [16]: 1590 nM | GI50 [17]: 970 nM | LC50 (50% lethal concentration) [17]: 3960 nM | TGI [17]: 1960 nM | GI50 [18]: 754 nM | LC50 (concentration killing 50% of cells) [18]: 4650 nM | TGI [18]: 1870 nM | GI50 [19]: 1160 nM | LC50 (lethal concentration, 50% net cell kill) [19]: 50000 nM | TGI [19]: 4500 nM | GI50 [20]: 981 nM | LC50 (concentration killing 50% of cells) [20]: > 50000 nM | TGI [20]: 4000 nM | GI50 [21]: 890 nM | LC50 (concentration killing 50% of cells) [21]: 21000 nM | TGI [21]: 2420 nM | growth at 0.5 µM [22]: 93% | growth at 0.5 µM [23]: 55% | growth at 0.5 µM [24]: 40% | growth at 0.5 µM [25]: 53% | growth at 0.05 µM [26]: 98% | growth at 0.05 µM [27]: 87% | growth at 50 µM [28]: 1% | growth at 50 µM [29]: -35% | growth at 50 µM [30]: -9% | growth at 0.05 µM [31]: 99% | growth at 0.05 µM [32]: 95% | growth at 0.005 µM [33]: 93% | growth at 0.005 µM [34]: 92% | growth at 0.005 µM [35]: 94% | growth at 0.005 µM [36]: 100%
